From ChEMBL document CHEMBL3124768, “Substituted imidazothiazoles as inhibitors of viral polymerase” (ACS Med Chem Lett, 2014)

Tests used:
[1] = Inhibition of HCV genotype 1b isolate BK truncated NS5B polymerase lacking C-terminal 21 amino acids assessed as inhibition of 33P-GTP incorporation using Poly(rC) template by scintillation counting analysis; design: species or system Hepatitis C virus (isolate BK)
Hepatitis C virus = assay: Antiviral activity against Hepatitis C virus genotype 1b isolate Con1 assessed as inhibition of HCV replicon-encoded Renilla luciferase reporter activity after 72 hrs by cell-based replicon assay; type: functional, organism-based, Hepacivirus hominis; conditions: isolate Con1, 72 h

IC50 [1] [µM]	EC50 (Hepatitis C virus) [µM]	SMILES
1	< 0.25	CNC(=O)c1c(-c2ccc(F)cc2)nc2sc(-c3cc(C(=O)NC(C)(C)c4ncccn4)ccc3C)cn12
< 0.25	< 0.25	CNC(=O)c1c(-c2ccc(F)cc2)nc2sc(-c3cc(C(=O)NC(C)(C)c4ccccc4)ccc3C)cn12
< 0.25	< 0.25	CNC(=O)c1c(-c2ccc(F)cc2)nc2sc(-c3cccc(C(=O)NC(C)(C)c4ccccc4)c3)cn12
< 0.25	< 0.25	CNC(=O)c1c(-c2ccc(F)cc2)nc2sc(-c3cccc(C(=O)NC4(c5ccccn5)CC4)c3)cn12
1	< 0.25	CNC(=O)c1c(-c2ccc(F)cc2)nc2sc(-c3cccc(C(=O)NC4(c5ccccc5)CC4)c3)cn12
< 0.25	< 0.25	CNC(=O)c1c(-c2ccc(F)cc2)nc2sc(-c3cc(C(=O)N[C@@H](C)c4ccccc4)ccc3C)cn12
1	< 0.25	CNC(=O)c1c(-c2ccc(F)cc2)nc2sc(-c3cc(C(=O)NC(C)(C)C(=O)OC)ccc3C)cn12
1	< 0.25	CNC(=O)c1c(-c2ccc(F)cc2)nc2sc(-c3cc(C(=O)NC4(C(C)C)CC4)ccc3C)cn12
< 0.25	< 0.25	CNC(=O)c1c(-c2ccc(F)cc2)nc2sc(-c3cc(C(=O)NC(C)(C)c4ccccc4)ccc3OC)cn12
< 0.25	< 0.25	CNC(=O)c1c(-c2ccc(F)cc2)nc2sc(-c3cc(C(=O)NC(C)(C)c4ccccc4)c(OC)cc3C)cn12
